Active and inactive are the calls of the source. No cut-off for these calls is given here.
How the values were obtained:
Rec1 = assay: Growth inhibition of human REC1 cells assessed as inhibition of cell growth measured after 72 hrs by resazurin dye based assay; assay type: functional
[1] = target: Cyclin-dependent kinase 2 (Homo sapiens) (UniProt P24941); assay: Inhibition of GST-tagged CDK2/cyclinE (unknown origin) expressed in Sf9 cells assessed as residual activity using histone H1 as substrate in presence of ATP and Ci(gamma33-P) ATP at 1 uM measured by microplate reader assay
[2] = target: Tyrosine-protein kinase Fyn (Homo sapiens) (UniProt P06241); assay: Inhibition of human recombinant full length GST-tagged FYN (M1 to L537 residues) assessed as residual activity using poly (Glu,Tyr) as substrate in presence of ATP and Ci(gamma33-P) ATP at 1 uM measured by microplate reader assay
K562 = assay: Growth inhibition of human K562 cells assessed as inhibition of cell growth measured after 72 hrs by resazurin dye based assay; assay type: functional
[3] = target: Receptor-type tyrosine-protein kinase FLT3 (Homo sapiens) (UniProt P36888); assay: Inhibition of human recombinant […] N-terminal GST-tagged FLT3 (R571 to S993 residues) assessed as residual activity using poly (Ala, Glu, Lys, Tyr) hydrobromide as substrate in presence of ATP and Ci(gamma33-P) ATP at 1 uM measured by microplate reader assay
Ramos = assay: Growth inhibition of human Ramos cells assessed as inhibition of cell growth measured after 72 hrs by resazurin dye based assay; assay type: functional
[4] = Growth inhibition of human patient derived UPF7U cells assessed as inhibition of cell growth measured after 72 hrs by resazurin dye based assay; assay type: functional
[5] = Growth inhibition of human patient derived UPF1H cells assessed as inhibition of cell growth measured after 72 hrs by resazurin dye based assay; assay type: functional
[6] = target: Tyrosine-protein kinase SYK (Homo sapiens) (UniProt P43405); assay: Inhibition of human recombinant GST-tagged SYK (M1 to N635 residues) assessed as residual activity using poly (Glu,Tyr) as substrate in presence of ATP and Ci(gamma33-P) ATP at 1 uM measured by microplate reader assay
[7] = target: Tyrosine-protein kinase ABL1 (Homo sapiens) (UniProt P00519); assay: Inhibition of Abl (unknown origin) expressed in Sf9 cells assessed as residual activity using GGEAIYAAPFKK peptide as substrate in presence of ATP and Ci(gamma33-P)ATP at 1 uM measured by microplate reader
[8] = target: T1, Tyrosine-protein kinase BTK (Homo sapiens, UniProt Q06187); assay: Inhibition of human BTK using poly (Glu,Tyr) as substrate in presence of ATP and Ci(gamma33-P) ATP measured by microplate reader assay
[9] = target: T1, Tyrosine-protein kinase BTK; assay: Inhibition of human BTK assessed as residual activity using poly (Glu,Tyr) as substrate in presence of ATP and Ci(gamma33-P) ATP at 1 uM measured by microplate reader assay
[10] = target: T1, Tyrosine-protein kinase BTK; assay: Inhibition of BTK in human Ramos cells assessed as reduction of IgM stimulated BTK ([…]) phosphorylation at 1 to 5 uM measured after 24 hrs by western blot assay; assay type: cell-based; details: dose 1-5 µM
[11] = target: T1, Tyrosine-protein kinase BTK; assay: Inhibition of BTK in human Ramos cells assessed as reduction of IgM stimulated PLCgamma2 (Y1217) phosphorylation at 1 to 5 uM measured after 24 hrs by western blot assay; assay type: cell-based; details: dose 1-5 µM
[12] = target: Mitogen-activated protein kinase; ERK1/ERK2 (Homo sapiens) (UniProt P27361+P28482); assay: Inhibition of ERK1/2 in human Ramos cells assessed as reduction in ERK1/2 phosphorylation at 1 to 5 uM measured after 24 hrs by western blot assay; assay type: cell-based; details: dose 1-5 µM
Sequence of Mitogen-activated protein kinase; ERK1/ERK2 (Homo sapiens) (P27361 whole entry, looked up): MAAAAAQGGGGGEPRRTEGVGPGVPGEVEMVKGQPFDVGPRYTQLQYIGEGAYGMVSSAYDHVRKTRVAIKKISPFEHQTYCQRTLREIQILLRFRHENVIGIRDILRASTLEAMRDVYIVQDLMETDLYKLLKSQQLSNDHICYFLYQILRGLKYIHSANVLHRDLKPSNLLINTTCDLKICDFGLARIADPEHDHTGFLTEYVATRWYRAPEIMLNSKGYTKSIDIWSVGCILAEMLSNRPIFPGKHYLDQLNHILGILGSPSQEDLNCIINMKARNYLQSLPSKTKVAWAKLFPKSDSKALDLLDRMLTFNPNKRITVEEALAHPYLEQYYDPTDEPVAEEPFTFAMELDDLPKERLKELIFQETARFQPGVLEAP
Sequence of Mitogen-activated protein kinase; ERK1/ERK2 (Homo sapiens) (P28482 whole entry, looked up): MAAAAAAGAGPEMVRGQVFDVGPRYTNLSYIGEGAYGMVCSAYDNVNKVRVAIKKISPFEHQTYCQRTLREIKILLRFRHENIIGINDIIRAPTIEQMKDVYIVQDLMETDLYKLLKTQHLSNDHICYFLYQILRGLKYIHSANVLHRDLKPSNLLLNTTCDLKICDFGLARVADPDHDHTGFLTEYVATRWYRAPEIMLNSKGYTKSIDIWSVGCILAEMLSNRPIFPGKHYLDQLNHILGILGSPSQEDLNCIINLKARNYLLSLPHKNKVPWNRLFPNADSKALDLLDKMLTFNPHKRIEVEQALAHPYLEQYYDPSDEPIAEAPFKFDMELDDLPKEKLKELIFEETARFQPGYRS

Sequence of Receptor-type tyrosine-protein kinase FLT3 (Homo sapiens) (P36888 whole entry, the tested form may be a part): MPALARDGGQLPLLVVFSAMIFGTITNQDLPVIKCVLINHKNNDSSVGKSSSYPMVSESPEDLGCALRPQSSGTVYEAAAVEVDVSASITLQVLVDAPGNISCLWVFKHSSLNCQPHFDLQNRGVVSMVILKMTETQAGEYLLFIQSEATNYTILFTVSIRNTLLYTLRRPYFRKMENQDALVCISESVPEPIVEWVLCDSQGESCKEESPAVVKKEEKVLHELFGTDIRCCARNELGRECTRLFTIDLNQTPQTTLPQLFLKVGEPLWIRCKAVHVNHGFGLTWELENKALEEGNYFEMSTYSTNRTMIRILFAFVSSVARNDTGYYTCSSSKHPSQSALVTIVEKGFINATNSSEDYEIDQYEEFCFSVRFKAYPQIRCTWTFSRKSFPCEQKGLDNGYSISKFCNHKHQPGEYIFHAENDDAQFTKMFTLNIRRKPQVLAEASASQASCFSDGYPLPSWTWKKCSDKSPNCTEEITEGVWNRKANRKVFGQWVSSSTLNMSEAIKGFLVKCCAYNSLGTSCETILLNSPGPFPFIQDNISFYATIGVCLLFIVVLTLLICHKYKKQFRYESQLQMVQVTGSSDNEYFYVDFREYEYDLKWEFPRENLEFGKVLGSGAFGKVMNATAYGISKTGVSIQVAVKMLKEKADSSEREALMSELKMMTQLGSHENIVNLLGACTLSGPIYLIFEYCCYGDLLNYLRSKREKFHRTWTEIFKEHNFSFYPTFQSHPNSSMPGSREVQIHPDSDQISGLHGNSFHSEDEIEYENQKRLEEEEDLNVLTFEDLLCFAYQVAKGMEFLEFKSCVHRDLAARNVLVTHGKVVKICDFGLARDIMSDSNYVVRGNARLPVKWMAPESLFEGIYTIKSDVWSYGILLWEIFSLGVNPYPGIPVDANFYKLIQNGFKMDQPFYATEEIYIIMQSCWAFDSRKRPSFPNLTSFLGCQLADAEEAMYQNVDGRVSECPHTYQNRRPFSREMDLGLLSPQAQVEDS
Sequence of Tyrosine-protein kinase Fyn (Homo sapiens) (P06241 2-537 limits assumed): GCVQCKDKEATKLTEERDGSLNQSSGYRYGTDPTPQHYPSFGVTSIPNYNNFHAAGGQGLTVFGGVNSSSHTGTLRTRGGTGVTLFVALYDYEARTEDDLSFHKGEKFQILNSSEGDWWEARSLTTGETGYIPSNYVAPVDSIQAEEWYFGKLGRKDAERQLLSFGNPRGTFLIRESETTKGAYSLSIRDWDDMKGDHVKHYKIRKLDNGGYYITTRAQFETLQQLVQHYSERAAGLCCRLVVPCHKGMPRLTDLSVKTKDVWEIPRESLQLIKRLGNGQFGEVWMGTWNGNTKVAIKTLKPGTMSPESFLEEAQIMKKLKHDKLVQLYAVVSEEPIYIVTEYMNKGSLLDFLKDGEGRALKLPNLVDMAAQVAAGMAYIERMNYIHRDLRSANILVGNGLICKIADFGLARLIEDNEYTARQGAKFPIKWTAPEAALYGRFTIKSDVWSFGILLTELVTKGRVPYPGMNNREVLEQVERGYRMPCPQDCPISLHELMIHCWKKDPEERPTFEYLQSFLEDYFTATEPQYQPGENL
Sequence of Tyrosine-protein kinase ABL1 (Homo sapiens) (P00519 whole entry): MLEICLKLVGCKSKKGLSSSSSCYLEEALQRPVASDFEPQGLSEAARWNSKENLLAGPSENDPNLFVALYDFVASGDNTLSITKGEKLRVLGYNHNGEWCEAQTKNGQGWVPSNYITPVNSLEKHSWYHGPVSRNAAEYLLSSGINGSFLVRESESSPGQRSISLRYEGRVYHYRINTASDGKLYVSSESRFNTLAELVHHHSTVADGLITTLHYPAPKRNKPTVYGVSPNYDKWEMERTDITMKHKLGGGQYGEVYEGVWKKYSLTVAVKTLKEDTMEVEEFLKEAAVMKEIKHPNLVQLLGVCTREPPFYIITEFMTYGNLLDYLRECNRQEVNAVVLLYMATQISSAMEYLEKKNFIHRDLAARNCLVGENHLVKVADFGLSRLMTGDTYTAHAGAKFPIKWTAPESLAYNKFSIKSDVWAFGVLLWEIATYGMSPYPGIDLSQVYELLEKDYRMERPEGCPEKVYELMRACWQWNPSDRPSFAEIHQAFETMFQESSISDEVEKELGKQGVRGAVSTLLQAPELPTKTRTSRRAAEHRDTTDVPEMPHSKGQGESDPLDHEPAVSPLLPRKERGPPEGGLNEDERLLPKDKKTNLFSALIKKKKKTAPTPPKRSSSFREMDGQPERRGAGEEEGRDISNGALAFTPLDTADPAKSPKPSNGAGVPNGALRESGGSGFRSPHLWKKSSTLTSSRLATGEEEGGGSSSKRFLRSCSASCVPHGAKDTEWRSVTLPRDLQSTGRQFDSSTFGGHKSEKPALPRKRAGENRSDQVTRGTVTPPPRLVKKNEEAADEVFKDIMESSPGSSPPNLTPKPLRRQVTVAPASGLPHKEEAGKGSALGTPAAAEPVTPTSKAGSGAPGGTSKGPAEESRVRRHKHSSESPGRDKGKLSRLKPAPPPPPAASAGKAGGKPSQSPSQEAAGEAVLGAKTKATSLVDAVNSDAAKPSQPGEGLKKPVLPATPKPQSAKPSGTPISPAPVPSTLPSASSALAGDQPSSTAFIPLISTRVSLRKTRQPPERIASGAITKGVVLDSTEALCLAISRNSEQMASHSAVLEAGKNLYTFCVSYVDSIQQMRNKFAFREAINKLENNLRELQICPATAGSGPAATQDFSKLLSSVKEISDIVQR
T1 sequence (Q06187 whole entry): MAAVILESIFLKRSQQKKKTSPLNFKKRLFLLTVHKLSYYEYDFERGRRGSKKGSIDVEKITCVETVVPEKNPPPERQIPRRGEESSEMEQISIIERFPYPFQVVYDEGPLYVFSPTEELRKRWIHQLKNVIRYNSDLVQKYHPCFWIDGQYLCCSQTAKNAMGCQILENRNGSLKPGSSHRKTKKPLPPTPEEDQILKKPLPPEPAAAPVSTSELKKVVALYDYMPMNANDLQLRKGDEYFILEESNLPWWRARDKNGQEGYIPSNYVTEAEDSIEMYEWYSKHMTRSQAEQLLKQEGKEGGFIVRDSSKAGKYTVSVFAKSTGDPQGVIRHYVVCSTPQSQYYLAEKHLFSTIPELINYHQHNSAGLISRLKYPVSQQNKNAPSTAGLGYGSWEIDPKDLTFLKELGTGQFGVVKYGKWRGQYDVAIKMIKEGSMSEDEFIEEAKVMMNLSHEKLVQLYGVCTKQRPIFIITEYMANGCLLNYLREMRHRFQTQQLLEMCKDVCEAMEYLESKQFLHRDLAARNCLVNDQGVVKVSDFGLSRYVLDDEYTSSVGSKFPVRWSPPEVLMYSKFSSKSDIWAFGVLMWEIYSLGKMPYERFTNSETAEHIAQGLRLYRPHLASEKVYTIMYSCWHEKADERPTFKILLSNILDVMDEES

Structure (SMILES)	GI50 (Rec1)	Activity [1]	Activity [2]	GI50 (K562)	Activity [3]	GI50 (Ramos)	GI50 [4]	GI50 [5]	Activity [6]	Activity [7]	GI50 (Rec1; Homo sapiens, Rec1)	IC50 [8]	Activity [9]	GI50 (K562; Homo sapiens, K562)	GI50 (Ramos; Homo sapiens, Ramos)	GI50 ([4]; Homo sapiens, UPF7U)	GI50 ([5]; Homo sapiens, UPF1H)	inhibition [10]	inhibition [11]	inhibition [12]
C=CC(=O)N1CCC[C@H](n2nc(-c3ccc(Oc4ccccc4)cc3)c3c(N)ncnc32)C1	3.3 µM	69.8%	57.5%	> 4 µM	60.3%	> 4 µM	> 4 µM	> 4 µM	77.3%	62.8%	–	–	–	–	–	–	–	–	–	–
Cc1c(NC(=O)c2c[nH]cn2)cccc1-c1cc2[nH]cnc2c(Nc2ccc(C(=O)N3CCOCC3)cc2)n1	–	94.6%	36.6%	–	68.3%	–	–	–	76.5%	80.8%	> 50 µM	0.079 µM	27.2%	> 50 µM	> 50 µM	> 50 µM	> 25 µM	–	–	–
Cc1c(NC(=O)c2cccnc2)cccc1-c1cc2[nH]cnc2c(Nc2ccc(C(=O)N3CCOCC3)cc2)n1	–	89%	75.2%	–	76.2%	–	–	–	62.3%	69.1%	> 50 µM	0.264 µM	25.3%	> 50 µM	> 50 µM	> 50 µM	> 50 µM	Active	Active	inactive
Cc1c(NC(=O)c2nc3ccccc3[nH]2)cccc1-c1cc2[nH]cnc2c(Nc2ccc(C(=O)N3CCOCC3)cc2)n1	–	97.9%	64.7%	–	53.9%	–	–	–	92%	78%	> 12.5 µM	0.035 µM	20.9%	10 µM	10.1 µM	> 12.5 µM	> 12.5 µM	Active	Active	–
Cc1c(NC(=O)c2ccccn2)cccc1-c1cc2[nH]cnc2c(Nc2ccc(C(=O)N3CCOCC3)cc2)n1	–	93.7%	78.8%	–	> 100%	–	–	–	72.5%	56.8%	> 12.5 µM	0.166 µM	27.4%	> 12.5 µM	> 12.5 µM	> 12.5 µM	> 12.5 µM	–	–	–
CC(=O)Nc1cccc(-c2cc3[nH]cnc3c(Nc3ccc(C(=O)N4CCOCC4)cc3)n2)c1C	–	94.5%	84%	–	95%	–	–	–	61.7%	52.4%	> 50 µM	0.545 µM	38.8%	> 50 µM	> 50 µM	> 50 µM	35.1 µM	–	–	–
Cc1cccc(-c2cc(Nc3ccc(C(=O)N4CCOCC4)cc3)c3nc[nH]c3n2)c1C	–	–	–	–	–	–	–	–	–	–	> 50 µM	–	–	> 50 µM	> 50 µM	> 50 µM	> 50 µM	–	–	–
COc1ccc(Cn2cnc3c(Nc4ccc(C(=O)N5CCOCC5)cc4)nc(-c4cccc(NC(=O)c5ccc(C(C)(C)C)cc5)c4C)cc32)cc1	–	96.7%	73.9%	–	42.7%	–	–	–	82.3%	95.1%	> 50 µM	> 10 µM	71.2%	> 50 µM	> 50 µM	> 50 µM	> 50 µM	–	–	–
